In patent US8946397B1, “Tagged nucleosides that leave no scar upon cleavage” (priority 2011, dated 2015):
Where two headings read alike, the source gives them in different places.

Assays:
[1] = cited from earlier work
[2] = Elimination of scar from triphosphate-aldehyde, analyzed by ion-exchange HPLC; type: physicochemical; conditions: 55° C.
Procedure: To develop the reagents for elimination of scar triphosphate-aldehyde which was obtained from the treatment of compound 17 with 10 mM NaIO4 was used as model compound. A variety of conditions were explored that might eliminate the scar and the reaction was analyzed by ion-exchange HPLC (buffer A: water; buffer B: 1M NH4HCO3; gradient 0˜35% B over 20 min).

[3] = tested on: DNA polymerases and reverse transcriptases; assay: Standing start primer-extension assay; type: biochemical
Procedure: FIG. 8. […] Subsequent removal of the side chain allows primer extension to continue. […] Incubation is for 2 min with the template primer combination.
(§1) Thirteen DNA polymerases and reverse transcriptases performing well last time were tested again for their abilities to incorporate the triphosphate carrying a Bodipy 576/589 fluor (FIG. 6). The incubation time was extended to 30 min to see the boundaries for the enzymes to still consume all the primer s without leading to N+2 bands.
(§2) Gamma-^32P-labeled primer (2.5 pmol), cold primer (22.5 pmol) and template (30 pmol) were annealed by incubation at 95° C. for 5 min in various reaction buffer and slowly cooled to room temperature, followed by the addition of various DNA polymerase and reverse transcriptases. The extension was initiated by adding MJK's nucleoside triphosphates (MJ-008-065) (final concentration of 100 μM). After 30 min, the reaction was quenched by 10 mM EDTA in formamide loading buffer (20 μL); products were resolved by 14% PAGE.

Deep Vent (exo-) = Deep Vent (exo-) (Pyrococcus sp., UniProt Q51334, D141A/DEL493-1029/E143A); assay: Standing start primer-extension assay; type: biochemical; conditions: 30 min incubation, triphosphate 100 μM, Template AA
Procedure: as §1, §2

Bst DNA polymerases = biological target: T1, Bst DNA polymerases (Geobacillus stearothermophilus, UniProt P52026); assay: Standing start primer-extension assay; type: biochemical; conditions: 30 min incubation, triphosphate 100 μM, Template AA
T1 sequence (P52026 1-876): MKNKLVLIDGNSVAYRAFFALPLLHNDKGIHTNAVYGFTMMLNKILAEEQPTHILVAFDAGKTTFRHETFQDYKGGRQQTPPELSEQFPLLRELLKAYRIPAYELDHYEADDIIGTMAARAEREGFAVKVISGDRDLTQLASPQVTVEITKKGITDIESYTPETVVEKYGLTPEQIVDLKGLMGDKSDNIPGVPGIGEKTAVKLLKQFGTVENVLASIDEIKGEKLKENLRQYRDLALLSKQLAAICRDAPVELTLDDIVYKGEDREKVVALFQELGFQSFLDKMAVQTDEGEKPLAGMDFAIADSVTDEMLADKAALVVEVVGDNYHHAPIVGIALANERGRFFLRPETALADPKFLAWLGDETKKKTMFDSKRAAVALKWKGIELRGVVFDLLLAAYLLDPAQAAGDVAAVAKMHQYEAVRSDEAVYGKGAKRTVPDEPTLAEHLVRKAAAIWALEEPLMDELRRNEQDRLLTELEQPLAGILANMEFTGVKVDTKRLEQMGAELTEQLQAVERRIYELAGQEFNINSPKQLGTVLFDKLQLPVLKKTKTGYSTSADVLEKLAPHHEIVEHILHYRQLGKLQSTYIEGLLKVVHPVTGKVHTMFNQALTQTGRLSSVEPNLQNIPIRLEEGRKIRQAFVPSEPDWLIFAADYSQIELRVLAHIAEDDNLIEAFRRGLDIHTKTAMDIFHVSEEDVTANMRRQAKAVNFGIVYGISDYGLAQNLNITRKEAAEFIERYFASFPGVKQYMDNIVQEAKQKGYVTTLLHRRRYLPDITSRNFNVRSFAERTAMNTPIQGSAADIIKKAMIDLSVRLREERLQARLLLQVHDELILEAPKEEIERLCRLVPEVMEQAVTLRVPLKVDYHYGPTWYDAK
Procedure: as §1, §2

Chain of Deep Vent (exo-) (Q51334 other isoform, or with tags, fused parts or gaps D141A/E143A/DEL493-1029): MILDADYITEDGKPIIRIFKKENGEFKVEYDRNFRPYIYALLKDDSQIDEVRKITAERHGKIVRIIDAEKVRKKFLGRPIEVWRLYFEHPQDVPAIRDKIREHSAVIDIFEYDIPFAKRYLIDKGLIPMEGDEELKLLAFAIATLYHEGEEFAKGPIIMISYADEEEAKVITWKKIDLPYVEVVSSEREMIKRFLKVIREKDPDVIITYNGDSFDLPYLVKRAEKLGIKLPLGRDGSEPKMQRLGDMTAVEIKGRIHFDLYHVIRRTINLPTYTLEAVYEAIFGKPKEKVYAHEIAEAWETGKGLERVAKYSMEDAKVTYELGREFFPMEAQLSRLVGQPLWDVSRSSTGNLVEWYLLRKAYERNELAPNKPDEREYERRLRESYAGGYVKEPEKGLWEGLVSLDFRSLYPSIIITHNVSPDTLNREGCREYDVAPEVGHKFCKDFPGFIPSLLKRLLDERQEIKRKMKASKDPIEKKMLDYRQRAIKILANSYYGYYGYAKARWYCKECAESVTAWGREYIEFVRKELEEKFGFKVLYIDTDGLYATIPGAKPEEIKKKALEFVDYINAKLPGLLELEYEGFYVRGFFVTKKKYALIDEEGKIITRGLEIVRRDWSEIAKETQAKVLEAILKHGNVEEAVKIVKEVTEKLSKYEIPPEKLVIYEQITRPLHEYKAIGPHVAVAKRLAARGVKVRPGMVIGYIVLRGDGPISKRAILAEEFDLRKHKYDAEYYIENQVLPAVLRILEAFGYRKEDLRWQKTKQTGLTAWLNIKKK

In the case of `Nc1ncnc2c([C@@H]3O[C@H](CO)[C@@H](O)[C@H]3O)[nH]nc12` [formycin A], the pKa ([1]; deprotonation of N7) is given as 9.6.
For `O=c1[nH]cnc2c([C@@H]3O[C@H](CO)[C@@H](O)[C@H]3O)n[nH]c12` [formycin B], the pKa ([1]; deprotonation of N7) is listed as 10.4.
For `Nc1ncc([C@@H]2O[C@H](CO)[C@@H](O)[C@H]2O)c(=O)[nH]1` [pseudoisocytidine], the pKa ([1]; deprotonation of N3) is given as 9.0.
In the case of `O=c1[nH]cc([C@@H]2O[C@H](CO)[C@@H](O)[C@H]2O)c(=O)[nH]1` [pseudouridine], the pKa ([1]; cite of deprotonation unclear) is given as 9.1.
In the case of `O=CCCn1cc([C@H]2C[C@H](O)[C@@H](COP(=O)(O)OP(=O)(O)OP(=O)(O)O)O2)c(=O)[nH]c1=O` [triphosphate-aldehyde], the “% Product” value ([2]; A: 100 mM glycine, pH 9.0, 10 min) is reported as 13%, the “% Product” value ([2]; A: 100 mM glycine, pH 9.0, 20 min) is reported as 20% and the “% Product” value ([2]; A: 100 mM glycine, pH 9.0, 30 min) is reported as 30%. For the same compound, the “% Product” value ([2]; A: 100 mM glycine, pH 10.0, 10 min) was 35%, the “% Product” value ([2]; A: 100 mM glycine, pH 10.0, 20 min) was 70% and the “% Product” value ([2]; A: 100 mM glycine, pH 10.0, 30 min) was 87%. The “% Product” value ([2]; A: 100 mM glycine, pH 11.0, 10 min) was 18%, the “% Product” value ([2]; A: 100 mM glycine, pH 11.0, 20 min) was 52% and the “% Product” value ([2]; A: 100 mM glycine, pH 11.0, 30 min) was 92%. The “% Product” value ([2]; B: 500 mM morpholine, pH 9.0, 10 min) was 73%, the “% Product” value ([2]; B: 500 mM morpholine, pH 9.0, 20 min) was 98% and the “% Product” value ([2]; B: 500 mM morpholine, pH 10.0, 10 min) was 70%. For the same compound, the “% Product” value ([2]; B: 500 mM morpholine, pH 10.0, 20 min) was 98%, the “% Product” value ([2]; B: 500 mM morpholine, pH 10.5, 10 min) was 50% and the “% Product” value ([2]; B: 500 mM morpholine, pH 10.5, 20 min) was 92%. For the same compound, the “% Product” value ([2]; B: 500 mM morpholine, pH 10.5, 30 min) was 99%, the “% Product” value ([2]; B: 500 mM morpholine, pH 11.2, 10 min) was 40% and the “% Product” value ([2]; B: 500 mM morpholine, pH 11.2, 20 min) was 80%. The “% Product” value ([2]; B: 500 mM morpholine, pH 11.2, 30 min) was 94%, the “% Product” value ([2]; C: 100 mM pyrrolidine, pH 9.0, 5 min) was 32% and the “% Product” value ([2]; C: 100 mM pyrrolidine, pH 9.0, 10 min) was 67%. The “% Product” value ([2]; C: 100 mM pyrrolidine, pH 10.0, 5 min) was 90%, the “% Product” value ([2]; C: 100 mM pyrrolidine, pH 10.0, 10 min) was 99% and the “% Product” value ([2]; C: 100 mM pyrrolidine, pH 11.0, 5 min) was 99%. The “% Product” value ([2]; C: 100 mM pyrrolidine, pH 11.0, 10 min) was 99%.
With “BODIPY 576/589 Labeled 1-(5-amino-3,4-dihydroxypentyl)-2′-deoxy-pseudouridine-5′-triphosphate [Compound 18]” the “extension of a primer on a template calling for two consecutive T analogs” value ([3]; 2 min incubation, no 3′-ONH2 group (FIG. 8)) was “stops with certain of the indicated polymerases after the addition of one T analog”, the “consume all the primer without leading to N+2 bands” value ([3]; thirteen enzymes, 30 min incubation, triphosphate 100 μM, Template AA) was “most of the polymerases and reverse transcriptases might achieve this goal” and the “N+2 products” value (Deep Vent (exo-)) was “only trace amount”. The “N+2 products” value (Bst DNA polymerases) was “only trace amount”.
